Patent publication US7863242B2, “Compositions for down-regulation of CCR5 expression and methods of use thereof” (priority 2003, dated 2011)

Key:
human lymphocytes = assay: Cell cycle analysis of activated PBMCs (propidium iodide, flow cytometry); type: cell-based; settings: 4 μM, 24 hours, PBMCs from 2 normal donors
Method: Indirubin-3′-monoxime (IM) arrests human lymphocytes in G1 phase. PBMCs from 2 normal donors were activated in absence and presence of 4 μM Indirubin-3′-momoxime (IM) for 24 hours. Cells were then fixed with 70% Ethanol, stained with Propidium Iodide, and analyzed by Flow cytometry. Percentages of cells in each phase of the cell cycle are shown.

HIV-1 ADA = assay: microbe, parasite or virus in culture; settings: for reduction of p24 levels: day 7 after infection
Method: Infectivity Assays: The following viruses were used in infection experiments: HIV-1 IIIb, HIV-1 ADA, HIV-1 BaL, HIV-1 JRFL, HIV-1 JRCSF, and HIV-1 SF162. HIV-1 IIIb is a T cell line-adapted lab strain that uses CXCR4 for entry into cells, whereas the rest are isolates that use CCR5. Viruses were obtained from the National Institutes of Health AIDS Research and Reference Reagent Program.
For infection of PBMCs, fresh donor PBMCs were cultured for 7 days in medium containing IL-2. On day 7, cells were exposed to the virus for 3 h. Nonadsorbed virus was removed by washing cells with PBS three times. Infected cells were cultured in IL-2 medium. Infection of MDMs was carried out as described before (Perno, 1993). Unless otherwise indicated, PBMCs were infected by using an moi of 0.001, and MDM were infected by using an moi of 0.002. Virus growth was monitored in culture supernatants by measuring p24 antigen levels by ELISA (NEN) or by measuring viral RT activity in an RT assay (Willey, 1988).
Antiviral Activity of RAPA in PBMCs: The antiviral activity of RAPA was assayed in PBMCs that had been cultured in the presence of RAPA for 7 days before infection. Cells were infected with the X4 HIV-1 IIIb and the R5 HIV-1 ADA strains. Infected cells were cultured in the presence of RAPA (same concentration as during pretreatment) for 7 additional days, during which time virus replication and cell viability were measured.
To test this hypothesis, donor PBMCs were cultured in IL-2 medium in the absence or presence of RAPA (1, 10, and 100 nM). […] Infected cells were cultured in the presence of RAPA (same concentration as during pretreatment) plus 0.1 nM TAK-779. Virus production was determined 7 days after infection.
Donor PBMCs were cultured in IL-2 medium in the absence or presence of HU (0 and 10 uM). After 7 days, cells were infected with HIV-1 ADA. Infected cells were cultured in the presence of HU (same concentration as during pretreatment) plus different concentration of TAK-779 ranging from 0, 2 and 20 nM). Virus production was determined 7 days after infection.
In order to determine the nature and degree of interaction between RAPA and T20, infectivity assays were performed in the presence of the drugs, alone and in combination. The infectivity assays were performed using PBMCs from healthy donors. PBMCs were cultured for 7 days in the presence of IL-2 (100 U/ml) in the presence or absence of RAPA. On day 7, cells were infected by exposure to the R5 strain HIV-1 ADA (m.o.i of 0.001) for 2 h. Non-adsorbed virus was removed by 3 washes with PBS. Infected cells were then plated in RPMI-10 supplemented with IL-2 (100 U/ml) in the presence of different concentrations of RAPA and T20. Each drug concentration was tested in triplicate. Medium was changed in day 3 after infection and drugs were added at the same concentration as before. On day 7 after infection, virus production was measured in the culture supernatants using a commercial p24 antigen ELISA (NCI, Frederick). Cell viability was determined using the MTT assay (Roche).
The antiviral data was then analyzed for synergy using two different methodologies, the Median Effect principle and Three Dimensional modeling.

CCR5 = CCR5 surface expression on CD4 and CD8 T lymphocytes in IL-2 cultured PBMCs (flow cytometry, mAb 182); type: cell-based, human; settings: days 7 and 10, five donors tested
Method: CCR5 surface expression was measured on PBMCs cultured in the presence of IL-2 for 7-10 days.

CCR5 mRNA = assay: Semiquantitative RT-PCR of CCR5 transcripts in PBMC cultures; type: cell-based, human; settings: PBMCs cultured with IL-2 and drug for 7 days
Method: PCR Methodologies: Amplification of CCR5 and β-chemokine RNA sequences was performed by RT-PCR as described (Baba, 1996; Levine, 1996).

Compound: Indirubin-3′-monoxime
- percentage of cells in G1 phase versus untreated control (human lymphocytes): the % of cells in G1 increases

Compound: Cc1ccc(-c2ccc3c(c2)C=C(C(=O)Nc2ccc(C[N+](C)(C)C4CCOCC4)cc2)CCC3)cc1.[Cl-] [TAK-779, N,N-dimethyl-N-[4-[[[2-(4-methylphenyl)-6,7-dihydro-5H-benzocyclohepten-8-yl]carbonyl]amino]benzyl]tetrahydro-2H-pyran-4-aminium chloride]
- reduction of p24 levels (HIV-1 ADA; 2 nM of TAK-779 alone): about 20%
- inhibition at 0.0001 µM (HIV-1 ADA; Human immunodeficiency virus 1, PBMC, 168 h, read-out: inhibition of virus replication): 21%

Compound: NC(=O)NO [HU, hydroxyurea]
- concentrations that down-regulated CCR5 surface expression on CD4 lymphocytes (CCR5): ≥ 50 µM
- CCR5 transcripts (semiquantitative RT-PCR) (CCR5 mRNA): decreased amounts of CCR5 transcripts
- reduction of p24 levels (HIV-1 ADA; 10 uM of HU alone): approximately 60%
